pIC50: −log10 of the molar value. Calls of active or inactive are those of the source. No cut-off for these calls is given here.
Experiments:
Assay type in all cases: cell-based
[1] = molecular target: T1, P2X purinoceptor 7 (Mus musculus) (UniProt Q9Z1M0); test: Antagonist activity at mouse P2X7 receptor expressed in HEK293 cells assessed as inhibition of ATP-induced receptor pore formation at 10 uM by propidium iodide dye uptake based fluorescence analysis
T1 sequence (whole entry): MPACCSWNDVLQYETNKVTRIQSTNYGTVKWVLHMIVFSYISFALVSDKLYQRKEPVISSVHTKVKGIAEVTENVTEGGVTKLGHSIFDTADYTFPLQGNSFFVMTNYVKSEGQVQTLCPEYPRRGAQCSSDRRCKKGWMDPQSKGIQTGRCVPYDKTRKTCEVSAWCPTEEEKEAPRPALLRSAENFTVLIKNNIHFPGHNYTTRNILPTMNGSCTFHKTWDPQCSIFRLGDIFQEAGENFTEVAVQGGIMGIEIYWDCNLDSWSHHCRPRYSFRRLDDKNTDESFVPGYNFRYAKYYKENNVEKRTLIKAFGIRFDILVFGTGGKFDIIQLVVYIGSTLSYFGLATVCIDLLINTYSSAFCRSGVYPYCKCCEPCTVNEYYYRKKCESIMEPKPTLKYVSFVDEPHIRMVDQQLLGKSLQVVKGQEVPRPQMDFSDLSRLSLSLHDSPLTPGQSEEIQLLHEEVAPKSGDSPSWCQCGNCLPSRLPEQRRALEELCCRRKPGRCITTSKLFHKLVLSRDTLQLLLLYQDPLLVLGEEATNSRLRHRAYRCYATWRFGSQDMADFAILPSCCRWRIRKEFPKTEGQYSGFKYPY

[2] = molecular target: T2, P2X purinoceptor 7 (Homo sapiens) (UniProt Q99572); test: Antagonist activity at human P2X7 receptor expressed in HEK293 cells assessed as inhibition of ATP-induced receptor pore formation at 10 uM by propidium iodide dye uptake based fluorescence analysis
T2 sequence (whole entry): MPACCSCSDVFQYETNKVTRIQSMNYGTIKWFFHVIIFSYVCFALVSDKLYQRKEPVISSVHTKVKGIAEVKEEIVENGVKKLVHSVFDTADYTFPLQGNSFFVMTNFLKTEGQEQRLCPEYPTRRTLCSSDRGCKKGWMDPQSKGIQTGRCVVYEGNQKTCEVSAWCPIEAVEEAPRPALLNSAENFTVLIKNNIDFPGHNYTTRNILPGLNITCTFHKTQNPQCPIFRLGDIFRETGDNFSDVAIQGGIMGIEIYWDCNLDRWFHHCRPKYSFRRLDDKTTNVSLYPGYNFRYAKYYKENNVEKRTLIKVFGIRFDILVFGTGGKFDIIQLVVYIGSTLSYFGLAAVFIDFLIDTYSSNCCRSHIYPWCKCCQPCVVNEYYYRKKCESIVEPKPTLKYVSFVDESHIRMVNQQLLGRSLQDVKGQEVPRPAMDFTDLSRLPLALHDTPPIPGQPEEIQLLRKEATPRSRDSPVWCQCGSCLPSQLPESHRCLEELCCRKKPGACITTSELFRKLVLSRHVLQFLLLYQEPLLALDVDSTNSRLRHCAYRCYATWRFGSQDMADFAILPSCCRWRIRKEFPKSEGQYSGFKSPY

[3] = molecular target: T1, P2X purinoceptor 7 (Mus musculus); test: Antagonist activity at mouse P2X7 receptor expressed in HEK293 cells assessed as inhibition of ATP-induced receptor pore formation at 200 nM by propidium iodide dye uptake based fluorescence analysis
[4] = molecular target: T2, P2X purinoceptor 7 (Homo sapiens); test: Antagonist activity at human P2X7 receptor expressed in HEK293 cells assessed as inhibition of ATP-induced receptor pore formation at 1 uM by propidium iodide dye uptake based fluorescence analysis
[5] = molecular target: T3, P2X purinoceptor 7 (Mus musculus, UniProt Q9Z1M0); test: Antagonist activity at mouse P2X7 receptor expressed in HEK293 cells assessed as inhibition of ATP-induced receptor pore formation by propidium iodide dye uptake based fluorescence analysis
T3 sequence (Q9Z1M0 whole entry): T1 sequence (whole entry)

[6] = molecular target: T1, P2X purinoceptor 7 (Mus musculus); test: Antagonist activity at mouse P2X7 receptor expressed in HEK293 cells assessed as inhibition of ATP-induced receptor pore formation at 1 uM by propidium iodide dye uptake based fluorescence analysis
[7] = molecular target: T2, P2X purinoceptor 7 (Homo sapiens); test: Antagonist activity at human P2X7 receptor expressed in HEK293 cells assessed as inhibition of ATP-induced receptor pore formation at 200 nM by propidium iodide dye uptake based fluorescence analysis
[8] = molecular target: T4, P2X purinoceptor 7 (Homo sapiens, UniProt Q99572); test: Antagonist activity at human P2X7 receptor expressed in HEK293 cells assessed as inhibition of ATP-induced receptor pore formation by propidium iodide dye uptake based fluorescence analysis
T4 sequence (Q99572 whole entry): T2 sequence (whole entry)

Row | Compound | inhibition ([6]; filed as antagonist) [%] | inhibition [7] | inhibition [3] | inhibition [4] [%] | inhibition [6] | also measured
1 | O=C(NCc1cn(-c2cc(Cl)ccn2)nn1)c1ccc(C(F)(F)F)c(Br)c1 |  |  |  |  |  | inhibition [1]: 22.5%; inhibition ([2]; filed as antagonist): 53.5%
2 | CS(=O)(=O)c1ccc(-c2ccc(Cl)c(C(=O)NCc3cn(-c4cc(Cl)ccn4)nn3)c2)cc1 | 71 | 22.9% |  |  |  | inhibition ([1]; filed as antagonist): > 50%; inhibition ([2]; filed as antagonist): > 50%; inhibition ([3]; filed as antagonist): 66%; inhibition ([4]; filed as antagonist): 40%; pIC50 [5]: 7.00
3 | O=C(NCc1cn(-c2cc(Cl)ccn2)nn1)c1cc(-c2cccc3[nH]ccc23)ccc1Cl |  | 15.6% | inactive | 34.1 | 10.2% | 
4 | CS(=O)(=O)c1ccc(-c2nc(C(=O)NCc3cn(-c4cccc(Br)n4)nn3)cs2)cc1 |  | 10.1% | inactive |  | inactive | inhibition ([4]; filed as antagonist): 53.8%; pIC50 [8]: 6.15
5 | CS(=O)(=O)c1ccc(-c2nc(C(=O)NCc3cn(-c4cc(F)ccn4)nn3)cs2)cc1 | 41.9 | inactive | 23.3% | 23.2 |  | 
6 | CS(=O)(=O)c1ccc(-c2ncc(C(=O)NCc3cn(-c4cccc(Br)n4)nn3)s2)cc1 | 52 | inactive | inactive | 6.2 |  | pIC50 [5]: 6.20
7 | Cc1cccc(Cl)c1C(=O)NCc1cn(-c2cc(Cl)ccn2)nn1 |  |  |  |  |  | inhibition [1]: 34.4%; inhibition [2]: inactive
8 | CS(=O)(=O)c1ccc(-c2ncc(C(=O)NCc3cn(-c4ccc(Br)cn4)nn3)s2)cc1 |  | 12.4% | inactive | 33.3 | inactive | 
9 | CS(=O)(=O)c1ccc(-c2csc(C(=O)NCc3cn(-c4cc(Cl)ccn4)nn3)n2)cc1 | 74 | 5% |  |  |  | inhibition ([3]; filed as antagonist): 55.2%; inhibition ([4]; filed as antagonist): 40.9%; pIC50 [5]: 6.78
10 | CC(C)Cc1ccc(-c2ccc(Cl)c(C(=O)NCc3cn(-c4cc(Cl)ccn4)nn3)c2)cc1 | 59.3 | 20.7% | inactive | 39.2 |  | pIC50 [5]: 6.39
11 | O=C(NCc1cn(-c2cc(Cl)ccn2)nn1)c1ccc(C(F)(F)F)cc1Cl |  |  |  |  |  | inhibition [1]: 39.3%; inhibition ([2]; filed as antagonist): 45.1%
12 | Nc1cccc(-c2ccc(Cl)c(C(=O)NCc3cn(-c4cc(Cl)ccn4)nn3)c2)c1 |  | 24.4% | 19.1% | 21.9 | inactive | 
13 | O=C(NCc1cn(-c2cc(Cl)ccn2)nn1)c1c(Cl)cccc1Br |  |  |  |  |  | inhibition ([1]; filed as antagonist): 62.3%; inhibition [2]: 23.1%
14 | Cc1cc(F)ccc1-c1ccc(Cl)c(C(=O)NCc2cn(-c3cc(Cl)ccn3)nn2)c1 |  | 13.4% | 17.8% | 23.3 | 9.2% | 
15 | CS(=O)(=O)c1cccc(-c2ncc(C(=O)NCc3cn(-c4cc(Cl)ccn4)nn3)s2)c1 |  | inactive | inactive | 36.7 | 25.8% | 
16 | Nc1cccc(-c2ncc(C(=O)NCc3cn(-c4cc(Cl)ccn4)nn3)s2)c1 |  | 9.8% | 2.9% |  | 35.2% | inhibition ([4]; filed as antagonist): 57.3%; pIC50 [8]: 6.18
17 | CS(=O)(=O)c1ccc(-c2ncc(C(=O)NCc3cn(-c4cc(F)ccn4)nn3)s2)cc1 | 61.8 | 37.8% |  |  |  | inhibition ([3]; filed as antagonist): 68.4%; inhibition ([4]; filed as antagonist): 45.1%; pIC50 [5]: 6.71

Reference: ChEMBL document CHEMBL5360655, “Design, Synthesis, and Biological Evaluation of Novel P2X7 Receptor Antagonists for the Treatment of Septic Acute Kidney Injury” (J Med Chem, 2023)
